From US5441984A, “Urea, thiourea and guanidine derivatives” (Eli Lilly and Company, priority 1994, dated 1995)

Tests used:
diabetic rats = assay: In Vivo Vascular Permeability Study in diabetic rats; parameters: species or system rat; conditions: treated diabetic rats; 0.1% of diet, seven weeks; Mean ± SD; eight rats per group
Method: As confirmation of the in vivo results obtained above, a second in vivo experiment was conducted. In this in vivo test system the compound of Example 7 was fed to diabetic rats at 0.1% of the rat's diet for seven weeks. After seven weeks the rats were killed and vascular permeability in a number of different organ systems was compared. In Table III, Column 1 discloses the organ system examined, while Columns 2, 3 and 4 disclose the vascular permeability in μg of plasma/gram wet weight/minute for control (non-diabetic rats), untreated (diabetic rats/untreated) and treated (diabetic rats/treated), respectively (eight rats per each group).

[1] = biological target: Protein Kinase C mediated procollagenase synthesis and secretion; assay: In Vitro Inhibition of Procollagenase: PKC (PDBu) stimulated procollagenase synthesis and secretion in primary human dermal fibroblasts; assay type: cell-based; parameters: unit not given here; conditions: 2.0% FBS used to supplement DME; 10 nM PDBu, 72 hours
Description: Collagenase and stromelysin are matrix metalloendoproteases which are known to be synthesized and secreted by a number of cell types in response to Protein Kinase C (PKC) activation. Matrix metalloendoproteases are responsible for the degradation of extracellular matrix molecules in the basement membrane and play a role in cell invasiveness, tissue remodeling alterations in the microvasculature (increased capillary permeability and uncontrolled cell growth) and normal matrix turnover. Alterations in the microvasculature are hallmarks of diabetic complications such as kidney failure, blindness and neuropathy. Accordingly, the ability to modulate PKC driven pathways, such as the synthesis and secretion of the […] enzyme precursor, procollagenase, should provide pharmacological advantages in treating diabetic complications.
The compounds of the present invention were evaluated for their ability to antagonize Protein Kinase C mediated procollagenase synthesis and secretion according to the following methodology.
Stimulation of the enzyme Protein Kinase C with 4-β-phorbol-12,13-dibutyrate (PDBu) leads human fibroblasts and other cells of endodermal, mesodermal and ectodermal origin to synthesize and secrete the enzyme precursor procollagenase. […]
9. After washing, the plates were read. […]

Compound: CSc1cccc(NC(=O)NCc2cc(C(C)(C)C)c(O)c(C(C)(C)C)c2)c1 [Example 11, N-[[3,5-Bis(1,1-dimethylethyl)-4-hydroxyphenyl]methyl]-N'-[3-(methylthio)phenyl]urea]
- % Normalization of Diabetic State, Blood Flow (rat): 21.50%
- % Normalization of Diabetic State, Blood Vessel Permeability (rat): -30.34%

Compound: CSc1ccccc1NC(=O)NCc1cc(C(C)(C)C)c(O)c(C(C)(C)C)c1 [Example 9, N-[[3,5-Bis(1,1-dimethylethyl)-4-hydroxyphenyl]methyl]-N'-[2-(methylthio)phenyl]urea]
- % Normalization of Diabetic State, Blood Flow (rat): 23.29%
- % Normalization of Diabetic State, Blood Vessel Permeability (rat): 8.45%

Compound: COc1c(C(C)(C)C)cc(CNC(=O)Nc2ccc(SC)cc2)cc1C(C)(C)C [Example 7]
- vascular permeability, aorta (diabetic rats): 109 ± 65 μg plasma/g wet weight/min
- vascular permeability, brain (diabetic rats): 26 ± 11 μg plasma/g wet weight/min
- vascular permeability, heart (diabetic rats): 547 ± 181 μg plasma/g wet weight/min
- vascular permeability, kidney (diabetic rats): 1208 ± 293 μg plasma/g wet weight/min
- vascular permeability, muscle (diabetic rats): 59 ± 13 μg plasma/g wet weight/min
- vascular permeability, ocular anterior uvea (diabetic rats): 373 ± 105 μg plasma/g wet weight/min
- vascular permeability, ocular posterior uvea (diabetic rats): 323 ± 91 μg plasma/g wet weight/min
- vascular permeability, retina (diabetic rats): 62 ± 18 μg plasma/g wet weight/min
- vascular permeability, sciatic nerve (diabetic rats): 59 ± 18 μg plasma/g wet weight/min

Compound: CC(C)(C)c1cc(CNC(=S)Nc2ccccc2)cc(C(C)(C)C)c1O [Example 10, N-[[3,5-Bis(1,1-dimethylethyl)-4-hydroxyphenyl]methyl]-N'-phenylthiourea]
- % Normalization of Diabetic State, Blood Flow (rat): 17.56%
- % Normalization of Diabetic State, Blood Vessel Permeability (rat): 1.99%

Compound: CSc1ccc(NC(=O)NCc2cc(C(C)(C)C)c(O)c(C(C)(C)C)c2)cc1 [Example 6, N-[[3,5-Bis(1,1-dimethylethyl)-4-hydroxyphenyl]methyl]-N'-[4-(methylthio)phenyl]urea]
- % Normalization of Diabetic State, Blood Flow (rat): 35.48%
- % Normalization of Diabetic State, Blood Vessel Permeability (rat): 66.12%

Compound: N-[[3-(methylthiophenyl)-4-hydroxy-5-(1,1-dimethylethyl)phenyl]methyl]-N'-[4-(methylthio)phenyl]urea [Example 13]
- IC50 [1]: 8.6
